ChEMBL document CHEMBL4368916, “Design, Synthesis, and Biological Evaluation of Retinoic Acid-Related Orphan Receptor γt (RORγt) Agonist Structure-Based Functionality Switching Approach from In House RORγt Inverse Agonist to RORγt Agonist” (J Med Chem, 2019)
Calls of active or inactive are those of the source. No cut-off for these calls is given here.

Experiments:
[1] = biological target: T1, Nuclear receptor ROR-gamma (Mus musculus) (UniProt P51450); assay: Inverse agonist activity at RORgammat in mouse naive CD4+ T cells assessed as […] of IL17 production at 0.001 to 10 uM after 4 days by ELISA; format: cell-based
T1 sequence (whole entry): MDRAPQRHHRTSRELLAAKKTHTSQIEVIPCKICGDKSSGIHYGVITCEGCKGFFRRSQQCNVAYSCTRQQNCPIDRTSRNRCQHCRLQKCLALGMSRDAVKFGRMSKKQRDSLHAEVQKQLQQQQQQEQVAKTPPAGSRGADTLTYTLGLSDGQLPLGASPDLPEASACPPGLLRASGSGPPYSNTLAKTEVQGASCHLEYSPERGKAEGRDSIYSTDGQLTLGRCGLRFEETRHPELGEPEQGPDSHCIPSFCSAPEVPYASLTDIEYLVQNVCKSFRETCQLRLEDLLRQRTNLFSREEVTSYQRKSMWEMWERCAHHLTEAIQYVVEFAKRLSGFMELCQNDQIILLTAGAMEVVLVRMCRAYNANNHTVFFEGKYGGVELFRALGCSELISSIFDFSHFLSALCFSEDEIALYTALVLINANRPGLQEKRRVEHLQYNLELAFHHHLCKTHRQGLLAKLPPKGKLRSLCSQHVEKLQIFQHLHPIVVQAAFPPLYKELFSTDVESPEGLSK

Cytochrome P450 3A4 = Cytochrome P450 3A4 (Homo sapiens, UniProt P08684); assay: Inhibition of CYP3A4 (unknown origin) at 10 uM; format: ADME
HepG2 = assay: Cytotoxicity against human HepG2 cells at 100 uM; format: cell-based; conditions: hepg2, 100 µM
[2] = Oral bioavailability in ICR mouse at 1 mg/kg by LC/MS/MS analysis; format: ADME, organism-based; conditions: in vivo
[3] = biological target: T1, Nuclear receptor ROR-gamma (Mus musculus); assay: Agonist activity at RORgammat in mouse naive CD4+ T cells assessed as induction of IL17 production at 0.1 to 3 uM after 4 days by ELISA; format: cell-based
[4] = MRT in ICR mouse at 0.1 mg/kg, iv or 1 mg/kg, po by LC/MS/MS analysis; format: ADME, organism-based; conditions: in vivo
[5] = Cmax in ICR mouse at 0.1 mg/kg, iv or 1 mg/kg, po by LC/MS/MS analysis; format: ADME, organism-based; conditions: in vivo
[6] = AUC (0 to 8 hrs) in ICR mouse at 0.1 mg/kg, iv or 1 mg/kg, po by LC/MS/MS analysis; format: ADME, organism-based; conditions: in vivo

Chain of Cytochrome P450 3A4 (P08684 whole entry): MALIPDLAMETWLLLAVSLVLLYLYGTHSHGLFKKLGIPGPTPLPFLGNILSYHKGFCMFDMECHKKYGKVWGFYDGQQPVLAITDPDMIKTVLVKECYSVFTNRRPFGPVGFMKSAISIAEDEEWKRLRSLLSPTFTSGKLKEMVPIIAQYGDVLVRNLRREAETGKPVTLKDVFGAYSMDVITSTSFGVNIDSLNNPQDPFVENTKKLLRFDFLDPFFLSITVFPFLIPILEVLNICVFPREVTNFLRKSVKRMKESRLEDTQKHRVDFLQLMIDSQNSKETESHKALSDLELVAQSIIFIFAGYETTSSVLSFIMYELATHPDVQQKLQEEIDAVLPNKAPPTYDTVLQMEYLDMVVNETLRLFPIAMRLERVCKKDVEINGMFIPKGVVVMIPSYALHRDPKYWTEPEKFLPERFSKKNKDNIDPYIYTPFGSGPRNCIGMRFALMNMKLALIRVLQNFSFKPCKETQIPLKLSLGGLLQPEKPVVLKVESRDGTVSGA

COc1ccc2c(n1)CCN(C(=O)CCCC(=O)O)[C@H]2C(=O)Nc1cc(F)c2c(c1)CCC2(C)C
Activity [1]: Active

CCOc1ccccc1CN1CCc2cc(NC(=O)[C@H]3c4ccc(OC)nc4CCN3C(=O)CCCC(=O)O)ccc21
inhibition (INH) (Cytochrome P450 3A4): Not Active | Activity (HepG2): Non-Toxic | bioavailability [2]: 19% | Activity [3]: Dose-dependent effect | MRT [4]: 4.1 h | Cmax [5]: 227 ng/mL | AUC(0-t) [6]: 1720 ng·h/mL

CCOc1ccccc1CN1CCc2cc(NC(=O)[C@H]3c4ccc(OC)nc4CCN3C(C)=O)ccc21
Activity [3]: Dose-dependent effect
